This experiment deals with codling moth neonates. In words: apple plug choice feeding bioassay with codling moth neonates. The experiment is classed as in vivo, Cydia pomonella. Also on record: key to Deterrence index: (1 − treated feeders / control feeders) × 100. The following applies: for feeding deterrent properties against codling moth neonates: all concentrations tested. As for the experimental part:
Codling moth pupae were obtained from USDA-ARS Yakima Agricultural Research Laboratory in Wapato, Wash., USA. These pupae were stored at 25° C., 70-80% relative humidity and 16:8 (L:D). Moths were allowed to oviposit on polypropylene Ziploc bags (S. C. Johnson, Racine, Wis., USA). Neonates were collected 0.5-1.0 h post-hatch and subjected to bioassays immediately.
Bioassays were performed as described in details by Durden et al. (2008). Briefly, apple plugs were formed by forcing a plastic soda straw through a 20 mm thick section of apple containing both epidermis and flesh of the apple. The straw with a plug in it was cut to a length of approximately 15 mm, the plug positioned with the epidermis of the apple protruding 2 mm from the straw and entire assembly was dipped in liquid paraffin wax. Excess wax was removed from the epidermis of the plug using a warm spatula.
Five microliters of either control (dehydration alcohol only) or experimental solution was applied to the epidermis of each apple plug and allowed to dry. Using a small amount of modeling clay, four plugs (two controls, two experimental) were arranged with one control and one experimental plug facing each other at either side of a 60×15 mm polyurethane petri dish. A short piece of glass rod (1.3 mm diameter) was placed between the two pairs of plugs to form a bridge allowing tested codling moth neonate to choose between either control or experimental plug regardless of which direction the larva traveled along the glass rod.
Assays were evaluated after 20 hours to determine which plug was fed upon. Feeding deterrence index was calculated according to Jones (1952) by dividing the number of the neonates feeding on apple plugs treated with […] by the number of the neonates feeding on the plugs treated with dehydration alcohol only, subtracting this figure from 1, and multiplying the result by 100. Further details about this method may be found in Durden et al. (2008) and Durden et al., (2011).
[…] The number of tests per concentration (each test performed with a different neonate) varied between 13 and 93. The null hypothesis that 50% of neonates would choose control plugs and 50% would choose experimental plugs was tested using Fisher's Exact Test (α=0.05).

The mark [1] stands for this setting: choice test versus fruit treated at 0.5 mg/ml.
[2] abbreviates: choice test versus fruit treated at 1 mg/ml.
Where [3] appears, read: choice test versus fruit treated at 5 mg/ml.
Setting [4] is: choice test versus fruit treated at 10 mg/ml.

Marks after values point to notes of the source that are not given here.

`CCCCCCCCCCCCCc1cccc(O)c1C(=O)O` [Ginkgolic acid 13:0] had a Deterrence index (0.5 mg/ml) of 23.5, a Deterrence index (1 mg/ml) of 26.1, a Deterrence index (5 mg/ml) of 0 and a Deterrence index (10 mg/ml) of 42.1. Also, the “Number of neonates feeding Treated fruit” value came out at 13 (0.5 mg/ml), 17 (1 mg/ml), 14 (5 mg/ml) and 11 (10 mg/ml). For the same molecule, where the note is “Fisher exact test”, the “feeding deterrent properties against codling moth neonates” value (shortened to “feeding deterrent properties”) is listed as “did not exhibit significant feeding deterrent properties”. Also, the “Number of neonates feeding Control fruit” value runs as follows: under setting [1], 17; under setting [2], 23; under setting [3], 14; under setting [4], 19.

Regarding `CCCCCCCCCCCCCCCc1cccc(O)c1C(=O)O` [Ginkgolic acid 15:0], the Deterrence index (0.2 mg/ml) turned out to be 25.0; the Deterrence index (0.5 mg/ml) is reported as 26.7; the Deterrence index (1 mg/ml) was determined as 91.7; the Deterrence index (2 mg/ml) is 73.7; the Deterrence index (5 mg/ml) was determined as 81.8. For the same molecule, the “Number of neonates feeding Treated fruit” value runs as follows: (0.2 mg/ml) 12; (0.5 mg/ml) 11; (1 mg/ml) 1*; (2 mg/ml) 5*; (5 mg/ml) 4**. Also, the “concentration at which feeding deterrent effects were found” value (Fisher exact test) was ≥ 1 mg/mL. The “Number of neonates feeding Control fruit” value stood at 16 (choice test versus fruit treated at 0.2 mg/ml); 15 under setting [1]; 12 under setting [2]; 19 (choice test versus fruit treated at 2 mg/ml); 22 under setting [3].

`CCCCCC/C=C\CCCCCCCc1cccc(O)c1C(=O)O` [Ginkgolic acid 15:1] returned a Deterrence index (0.5 mg/ml) of 18.8, a Deterrence index (1 mg/ml) of 41.7, a Deterrence index (5 mg/ml) of 50.0 and a Deterrence index (10 mg/ml) of 63.2. The “Number of neonates feeding Treated fruit” value is, setting by setting: (0.5 mg/ml) 13; (1 mg/ml) 14; (5 mg/ml) 15; (10 mg/ml) 7. In addition, the “feeding deterrent properties” value (Fisher exact test) is “did not exhibit significant feeding deterrent properties”. Besides, the “Number of neonates feeding Control fruit” value is given as 16 under setting [1], 24 under setting [2], 30 under setting [3] and 19 under setting [4].

As for `CCCCCC/C=C\CCCCCCCCCc1cccc(O)c1C(=O)O` [Ginkgolic acid 17:1], the Deterrence index reads like this: (0.5 mg/ml) 37.5; (1 mg/ml) 5.3; (5 mg/ml) 54.5; (10 mg/ml) 60.0. In addition, the “Number of neonates feeding Treated fruit” value (0.5 mg/ml) came out at 10, the “Number of neonates feeding Treated fruit” value (1 mg/ml) is given as 18, the “Number of neonates feeding Treated fruit” value (5 mg/ml) is listed as 10 and the “Number of neonates feeding Treated fruit” value (10 mg/ml) was 8. Besides, the “feeding deterrent properties” value (Fisher exact test) was “did not exhibit significant feeding deterrent properties”. The “Number of neonates feeding Control fruit” value was 16 under setting [1], 19 under setting [2], 22 under setting [3] and 20 under setting [4].
